# Test system: rat IL-23 induced skin inflammation model
# Test: Rat IL-23 induced ear thickening
# Format: in vivo, Sprague-Dawley rats
# Design: key to IL-23 induced ear thickening, comparison to control (significance): ns: not significant; **: p < 0.01; ***: p < 0.001; ****: p < 0.0001
# Conditions: for IL-23 induced ear thickening, comparison to control (significance): control Vehicle
# Experimental: Ear inflammation was induced in Sprague-Dawley rats by daily intradermal injection of recombinant rat IL-23 on study days 0-3. Treatment with the peptide of SEQ ID NO: 1 (dose response by oral gavage; 1, 3, 10, 30, 100, and 300 mg/kg, twice a day) was initiated prophylactically starting one day prior to and continued through day 3 after induction of inflammation. All rats were humanely euthanized on day 4. An anti-IL-23 monoclonal antibody (administered intraperitoneally on days −1 and day 3) was included in all studies as a positive control and comparator.
# Recombinant rat IL-23 was diluted with PBS to a concentration of 75 μg/mL, divided into 2.0 mL aliquots, and stored at −80° C. Daily from day 0 through day 3, rats were anesthetized with isoflurane and IL-23 was intradermally injected (i.d.) into the right ear (1.5 μg in a volume of 20 μL). In the control group, 20 μL of PBS was injected.
# Starting the morning prior to IL-23 injection through the evening of day 3, rats were dosed with either vehicle (phosphate buffer) or the peptide of SEQ ID NO: 1 compound twice daily (approximately 10 hours apart between doses during the day) by oral gavage (p.o.) in a volume of 5 mL/kg. In one experiment, the peptide of SEQ ID NO: 1 was also administered subcutaneously (s.c.) in a volume of 5 mL/kg.
# Anti-IL-23p19 antibody or isotype antibody was administered via intraperitoneal injection (i.p.) in a volume of 5 mL/kg on days −1 and 3.
# The purpose of the rat ear thickening experiment is to determine whether the orally dosed peptide of SEQ ID NO: 1 has sufficient systemic exposure to provide inhibition of IL-23R in skin tissue, thus modeling orally dosed therapeutic efficacy in psoriatic skin tissue. The animals from Example 19 were also used for Example 20. On day 0, prior to IL-23 injection, the ipsilateral ears averaged approximately 0.4 mm. In rats injected with saline, the ears did swell as a result of the repeated intradermal injections, by an average of 0.053 mm by day 4. By comparison, injection of IL-23 caused the ears of both vehicle-treated and isotype antibody-treated rats to progressively increase in thickness, reaching an average of approximately 0.240 to 0.242 mm by day 4, respectively. […] Reductions in ear thickness at doses of 2 mg/kg, s.c. and 20 mg/kg, p.o., q.d. were not statistically significant (FIG. 9 and Table 15).
compound,measurement,setting,value
"CC(=O)NCCCC[C@@H]1NC(=O)[C@H](Cc2c[nH]c3c(C)cccc23)NC(=O)[C@H]([C@@H](C)O)NC(=O)[C@H](CC(N)=O)NC(=O)[C@@H](NC(C)=O)C(C)(C)SSC(C)(C)[C@@H](C(=O)N[C@@H](Cc2ccc(OCCN)cc2)C(=O)N[C@@H](Cc2ccc3ccccc3c2)C(=O)NC2(C(=O)N[C@@H](CCC(=O)O)C(=O)N[C@@H](CC(N)=O)C(=O)N[C@@H](Cc3cccnc3)C(=O)N(C)CC(N)=O)CCOCC2)NC1=O [SEQ ID NO: 1, Ac-[Pen]*—N-T-[W(7-Me)]-[Lys(Ac)]-[Pen]*-Phe[4-(2-aminoethoxy)]-[2-Nal]-[THP]-E-N-[3-Pal]-Sarc-NH2]","IL-23 induced ear thickening, comparison to control (significance)","1 mg/kg, p.o., b.i.d., Day 1",ns
same,"IL-23 induced ear thickening, comparison to control (significance)","1 mg/kg, p.o., b.i.d., Day 2",ns
same,"IL-23 induced ear thickening, comparison to control (significance)","1 mg/kg, p.o., b.i.d., Day 3",**** (p < 0.0001)
same,"IL-23 induced ear thickening, comparison to control (significance)","1 mg/kg, p.o., b.i.d., Day 4",**** (p < 0.0001)
same,"IL-23 induced ear thickening, comparison to control (significance)","2 mg/kg, s.c., b.i.d., Day 1",ns
same,"IL-23 induced ear thickening, comparison to control (significance)","2 mg/kg, s.c., b.i.d., Day 2",ns
same,"IL-23 induced ear thickening, comparison to control (significance)","2 mg/kg, s.c., b.i.d., Day 3",ns
same,"IL-23 induced ear thickening, comparison to control (significance)","2 mg/kg, s.c., b.i.d., Day 4",ns
same,"IL-23 induced ear thickening, comparison to control (significance)","3 mg/kg, p.o., b.i.d., Day 1",ns
same,"IL-23 induced ear thickening, comparison to control (significance)","3 mg/kg, p.o., b.i.d., Day 2",ns
same,"IL-23 induced ear thickening, comparison to control (significance)","3 mg/kg, p.o., b.i.d., Day 3",*** (p < 0.001)
same,"IL-23 induced ear thickening, comparison to control (significance)","3 mg/kg, p.o., b.i.d., Day 4",*** (p < 0.001)
same,"IL-23 induced ear thickening, comparison to control (significance)","10 mg/kg, p.o., b.i.d., Day 1",ns
same,"IL-23 induced ear thickening, comparison to control (significance)","10 mg/kg, p.o., b.i.d., Day 2",ns
same,"IL-23 induced ear thickening, comparison to control (significance)","10 mg/kg, p.o., b.i.d., Day 3",*** (p < 0.001)
same,"IL-23 induced ear thickening, comparison to control (significance)","10 mg/kg, p.o., b.i.d., Day 4",**** (p < 0.0001)
same,"IL-23 induced ear thickening, comparison to control (significance)","20 mg/kg, p.o., q.d., Day 1",ns
same,"IL-23 induced ear thickening, comparison to control (significance)","20 mg/kg, p.o., q.d., Day 2",ns
same,"IL-23 induced ear thickening, comparison to control (significance)","20 mg/kg, p.o., q.d., Day 3",ns
same,"IL-23 induced ear thickening, comparison to control (significance)","20 mg/kg, p.o., q.d., Day 4",ns
same,"IL-23 induced ear thickening, comparison to control (significance)","30 mg/kg, p.o., b.i.d., Day 1",ns
same,"IL-23 induced ear thickening, comparison to control (significance)","30 mg/kg, p.o., b.i.d., Day 3",**** (p < 0.0001)
same,"IL-23 induced ear thickening, comparison to control (significance)","30 mg/kg, p.o., b.i.d., Day 4",**** (p < 0.0001)
same,"IL-23 induced ear thickening, comparison to control (significance)","100 mg/kg, p.o., b.i.d., Day 1",ns
same,"IL-23 induced ear thickening, comparison to control (significance)","100 mg/kg, p.o., b.i.d., Day 2",ns
same,"IL-23 induced ear thickening, comparison to control (significance)","100 mg/kg, p.o., b.i.d., Day 3",**** (p < 0.0001)
same,"IL-23 induced ear thickening, comparison to control (significance)","100 mg/kg, p.o., b.i.d., Day 4",**** (p < 0.0001)
same,"day 4 ear swelling, average","300 mg/kg, b.i.d., oral",0.120 mm
same,"IL-23 induced ear thickening, comparison to control (significance)","300 mg/kg, p.o., b.i.d., Day 1",ns
same,"IL-23 induced ear thickening, comparison to control (significance)","300 mg/kg, p.o., b.i.d., Day 2",ns
same,"IL-23 induced ear thickening, comparison to control (significance)","300 mg/kg, p.o., b.i.d., Day 3",*** (p < 0.001)
same,"IL-23 induced ear thickening, comparison to control (significance)","300 mg/kg, p.o., b.i.d., Day 4",**** (p < 0.0001)
same,efficacy on ear thickening,"doses of 10 mg/kg (p.o., b.i.d.) and above",equaled or exceeded that of anti-IL-23 antibody treatment
same,IL-23 induced ear thickening,orally administered,prevented

# From patent publication US11939361B2, “Compositions of peptide inhibitors of Interleukin-23 receptor” (Janssen Pharmaceutica NV, priority 2020, dated 2024)
